Activity calls are given as the source filed them.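 How the source made its calls: active means compounds giving half or more protection of infected cells from virus-caused growth loss, again on retest; inactive means the rest.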
Test system: CEM cells HIV-1 protection, formazan growth assay
Test: NCI AIDS Antiviral Assay
Conditions: for IC50: measured here: growth of uninfected CEM cells
In short: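 Soluble formazan readout of cell growth; CEM cells ± HIV-1; 5 drug concs. ≥50% protection → retest; ≥50% again = moderately active; reproducible 100% = confirmed active.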

Row | Structure (SMILES) | EC50 [µM] | IC50 [µM] | outcome
1 | Cc1ccc(C(=O)NC2C(=O)NC(C(C)C)C(=O)N3CCCC3C(=O)N(C)CC(=O)N(C)C(C(C)C)C(=O)OC2C)c2c1Oc1c(c(C(=O)NC3C(=O)NC(C(C)C)C(=O)N4CCCC4C(=O)N(C)CC(=O)N(C)C(C(C)C)C(=O)OC3C)c3nc(-c4ccccc4)c(=O)oc3c1C)N2 (configuration not stated) | > 19.1 | 0.00794 | –
2 | C/C(=C\[C@H]1C[C@@H]([C@@H]2CC[C@]34C[C@]23C=C[C@@H]2[C@@]3(C)CC=C5C[C@@H](c6ccccc6)OC[C@]5(C)[C@@H]3C[C@@H](O)[C@]24C)C(=O)O1)CO | > 200 | 1.1 | –
3 | COC(=O)C1(C)CCCC2(C)C3CC(CO)C(C(C)C)CC3CCC12 (configuration not stated) | > 200 | > 200 | –
4 | O=c1[nH]c(=O)n(COC(CO)CO)cc1-c1ccccc1 | > 200 | > 200 | –
5 | CC(C)[Si]1(C(C)C)OCC2OC3(CO)C(Oc4nc(=O)ccn43)C2O[Si](C(C)C)(C(C)C)O1 (configuration not stated) | > 200 | 18.6 | –
6 | Cc1cccc2c1CCC21OC(=O)c2c1cc(F)c1ccccc21 (configuration not stated) | > 39.8 | 14.8 | –
7 | COC(=O)Cc1cc(=O)n2c3ccccc3n(C)c2c1C#N | > 24.5 | > 24.5 | –
8 | CN1C=C(C(N)=O)C2CC(O)[C@@](NC(=O)CS(N)(=O)=O)(C(=O)O)C2C1 (some centres not stated) | > 166 | 3.72 | –
9 | O=[N+]([O-])c1ccc(Cl)cc1C1ON=C(c2ccccc2)N1C12CC3CC(CC(C3)C1)C2 (configuration not stated) | > 100 | > 100 | –
10 | O=C(Cc1ccc([N+](=O)[O-])c([N+](=O)[O-])c1CC(=O)C(=O)Nc1cc(Cl)ccc1Cl)C(=O)Nc1cc(Cl)ccc1Cl | > 47.9 | 9.33 | –
11 | CN1CCN(C(=S)N(C(=O)c2ccco2)c2ccccc2)CC1 | > 759 | > 759 | –
12 | CC(O)C(N=Cc1ccccc1[O-])C(=O)[O-].CC(O)C(N=Cc1ccccc1[O-])C(=O)[O-].[Co+2] (configuration not stated) | > 363 | 64.6 | –
13 | COC(=O)[C@@H]1CN(C(=O)CCc2ccccc2)C(=O)N1C(=O)OCc1ccccc1 | > 200 | 97.7 | –
14 | O=C(NNc1cn[nH]c(=O)c1Cl)/C(=C/c1ccc2c(c1)OCO2)NC(=O)c1ccccc1 | > 200 | 162 | –
15 | CC(C1=CC(=O)c2c(O)ccc(O)c2C1=O)C1=CC(=O)c2c(O)ccc(O)c2C1=O | – | – | inactive
16 | Cc1ccc(/C=c2\cc3oc(=O)c4cccc(c4-3)c2=O)cc1 | > 200 | 3.8 | –
17 | CC[C@@]1(O)C(=O)OCc2c1cc1n(c2=O)Cc2cc3c(OC)cccc3nc2-1 | > 0.1 | 0.0141 | –
18 | COc1cccc(C2c3cc4c(cc3OC(N3CCCCC3)C2C)OCO4)c1O (configuration not stated) | > 200 | 3.02 | –
19 | CN(c1ccccc1)c1c(-c2ccccc2)c(=O)oc2c1ccc1occc12 | – | – | inactive
20 | CCCCc1ccc(N2C(=O)c3cc([N+](=O)[O-])cnc3S2(=O)=O)cc1 | > 2 | 0.479 | –
21 | CN(C)C(=O)NC1(N(C)C)CC1 | > 200 | > 200 | –

Row | Structure (SMILES) | EC50 [µM] | IC50 [µM] | outcome
22 | CCN(CC)CCC(=O)c1ccc(OC)cc1 | > 912 | 19.5 | –
23 | Cc1cc(C)c(C(=O)/C(=C/c2ccccc2)c2ccccc2)c(C)c1 | > 15.8 | > 15.8 | –
24 | c1ccc([P+](Cc2ccc(C[P+](c3ccccc3)(c3ccccc3)c3ccccc3)cc2)(c2ccccc2)c2ccccc2)cc1 | 17.4 | 38 | –
25 | CCOC(=O)C(c1ccsc1)P(=O)(OCC)OCC (configuration not stated) | > 813 | 28.2 | –
26 | CCCCc1ccc(Nc2nc(=S)c3[nH]cnc3[nH]2)cc1 | > 200 | 44.7 | –
27 | O=CC1=CCCN(CCc2c[nH]c3ccccc23)C1 | > 195 | 10.2 | –
28 | CC(=O)c1cn(-c2ccc(Cl)cc2)c(=O)c2c(N)n[nH]c12 | 166 | > 200 | –
29 | CC1=CC(C)C(=O)N(CC(C)N2CCCC2)C(C)=C1 (configuration not stated) | > 191 | 74.1 | –
30 | CCN(CC)CC(=O)Nc1ccc(Cl)cc1Cc1ccccc1 | > 200 | 91.2 | –
31 | C[Si](C)(C)C#CCOC=C1CC1 | – | – | inactive
32 | Cc1nc2ccc(NC3OC(CO)C(O)C(O)C3O)cc2c(=O)n1-c1ccccc1 (configuration not stated) | > 200 | > 200 | –
33 | C=CC[C@]12CC(=O)OC(C=CC13OCCO3)C2 | > 200 | > 200 | –
34 | O=C(O)CN1CCN(CC(=O)O)CCN(CC(=O)O)CC1 | > 100 | 1.82 | –
35 | C=CC(=O)N1C/C(=C\c2ccc(Cl)cc2)C(=O)/C(=C/c2ccc(Cl)cc2)C1 | > 0.2 | 0.0708 | –
36 | CCCCCCCCCCCCCCCC(=O)Nc1ccn(C2CCC(COP(=O)(O)OCC3OC(n4cc(C)c(=O)[nH]c4=O)CC3F)O2)c(=O)n1 (configuration not stated) | 0.0132 | 0.2 | –
37 | CCc1cccc(CC)c1NC(=O)C(C#N)C1=C(Cl)C(=O)c2ccccc2C1=O (configuration not stated) | > 17.8 | 11.5 | –
38 | CCOC(=O)CSc1cc(C)c2c(N)c(C(=O)OCC)sc2n1 | > 72.4 | > 72.4 | –
39 | O=C(NCc1ccccc1)C1C(=O)C(=O)N(Cc2ccccc2)C1=O (configuration not stated) | > 269 | > 269 | –
40 | CC(CO)S(=O)(=O)O (configuration not stated) | > 200 | > 200 | –
41 | O=C(/C=C/c1ccc(C(F)(F)F)cc1)c1c([O-])on[n+]1-c1ccccc1 | – | – | inactive
42 | O=C(CSc1nnc(Cc2ccccc2)o1)Nc1ccccc1Cl | > 138 | > 138 | –

Row | Structure (SMILES) | EC50 [µM] | IC50 [µM] | outcome
43 | CCOC(=O)Nc1ccc2nc(N3CCCCCC3)sc2c1 | > 58.9 | 1.02 | –
44 | c1ccc(Nc2cc(Nc3ccccc3)cc(Nc3ccccc3)c2)cc1 | > 200 | 26.3 | –
45 | Cc1ccc2cc(NC(=O)CN)c3ccc(C)nc3c2n1 | > 20 | 3.72 | –
46 | N#CC1CC12c1ccccc1C(=O)c1ccccc12 (configuration not stated) | 135 | 145 | –
47 | COc1cc(N)c2c(c1)SCC(=O)N2 | > 200 | 148 | –
48 | S=C1Cc2c(-c3ccc(Br)cc3)cc(-c3ccccc3)nc2-c2ccccc2N1 | > 151 | 6.17 | –
49 | O=Cc1c2c(cc3c1CC1(C3)Cc3cc4c(c(C=O)c3C1)CCC4)CCC2 | > 200 | 34.7 | –
50 | COc1cccc(/C=N/[N-]C(N)=O)c1[O-].[Co+2].[OH3+] | > 126 | 61.7 | –
51 | CCC12CCCN(CCBr)C1c1c(n(C)c3ccccc13)C(C(=O)OC)C2 (configuration not stated) | > 27.5 | 13.5 | –
52 | Cc1ccc(-c2n[nH]c(=O)n2N2C(=O)C=CC2=O)cc1 | 49 | 501 | –
53 | CCC1(CC(=O)N(C)C)CCCN(C(=O)Oc2ccccc2)C1 (configuration not stated) | > 31.6 | > 31.6 | –
54 | CN(C)c1nc2n(CCO)ccnc-2c(=O)n1 | > 100 | > 100 | –
55 | CC(=O)NC(CCCNC(=O)N(CCCl)N=O)C(=O)NCc1ccccc1 (configuration not stated) | > 631 | 69.2 | –
56 | CC(=O)CC(c1ccc2c(c1)OCO2)c1c(O)c2ccccc2oc1=O (configuration not stated) | > 200 | 135 | –
57 | CCCCCCCCCCCCCCCCNc1ccn(C2CC(OP(=O)(O)OCC3CCC(n4ccc(N)nc4=O)O3)C(CO)O2)c(=O)n1 (configuration not stated) | 1 | 97.7 | –
58 | COc1nc2c(c(=O)n1C)N[C@H]1[C@H](OC(C)=O)[C@@H](OC(C)=O)CO[C@H]1N2 | > 200 | > 200 | –
59 | COc1ccc(-c2cc(=O)c3c(O)cc(C)cc3o2)cc1OC | > 200 | > 200 | –
60 | COc1ccc(NC(=S)c2ccoc2C)cc1CC(=O)OC(C)C | 0.174 | 1.51 | –
61 | Cc1cccc(N=Nc2c(C)nn(C(=O)c3ccc(O)cc3)c2C)c1 | – | – | inactive
